Results on 65 compounds are retold here after publication PMC6733874, “Zebrafish behavioural profiling identifies GABA and serotonin receptor ligands related to sedation and paradoxical excitation” (Nature Communications, 2019).

Like-named read-outs stand apart in the source and are kept apart here.

One test has as its system zebrafish. It counts as in vivo.
Test [1] concerns human GABAARs (α1β2 and α1β2γ2). It counts as cell-based. To be noted: for Ave Norm FLIPR Score / FLIPR Results: compound at 20 uM then 5 uM GABA; for Ave Norm FLIPR Score: DMSO = 1; for FLIPR Results: Positive/Negative. From the text:
To determine if these compounds targeted human GABAARs, we tested them in a fluorescent imaging plate reader (FLIPR) assay on HEK293 cells transfected with α1β2 and α1β2γ2 human GABAAR subtypes. […]. […] While some of the compounds appeared to function in this assay as negative allosteric modulators (NAMs), reductions in fluorescence were likely due to toxicity-induced cell loss (Fig. 2f, Supplementary Table 5).
We used the FLIPR system (Molecular Devices) to quantify GABA-evoked activity of human GABAARs. We chose a membrane potential dye (Molecular Devices) to measure changes in membrane potentials and stably transfected HEK293 cells that expressed α1, β2 and γ2. Since we observed an increase in GABA-evoked responses when transfected with γ2 transiently, we describe the cells as having a low level of γ-subunit expression, indicating heterogeneity of GABAAR compositions in the cell (α1β2 or α1β2γ2). To assay for direct agonists, fluorescence was subtracted pre- and post compound addition. To assay for PAMs, cells were treated with compound at 20 uM and then with 5 uM GABA.

Where [2] appears, read: larvae, low-volume acoustic stimulus.

As for `CCN(Cc1ccccc1)C(=O)Cn1c(=O)n(C)c2cnc(-c3ccccc3)nc21` [AC 5216], the “enhanced acoustic startle response (eASR) phenotype, in words” value (“enhanced acoustic startle response” below) with zebrafish (setting [2]) is “caused eASRs in vivo”. For `COc1ccc(S(=O)(=O)N2CCC(C)CC2)cc1Br` [compound 6366118], in test [1], the “Ave Norm FLIPR Score” value came to 14.5 and the “FLIPR Results” value is reported as “Positive”. On to `CCN(CC)CCOC(=O)c1cc(Cl)c(N)cc1OC` [SDZ-205557], for which the Phenoscore in the test on zebrafish (zebrafish, in vivo) is given as 0.07. With `Fc1ccc2c(CCNCc3cccc(OCC(F)(F)C(F)F)c3)c[nH]c2c1` [idalopirdine], the “enhanced acoustic startle response” value with zebrafish (setting [2]) is “reproducibly caused eASRs in vivo”. The same measure, in the same setting: the same measure for `CCOC(=O)c1cccc(N)c1` [tricaine]: “not all anesthetics caused eASR behaviors”.

For the compound `COc1ccc(NC(=O)c2ccc(-c3ccc(-c4noc(C)n4)cc3C)cc2)cc1OCCN(C)C` [SB-216641], the Phenoscore in the test with zebrafish (zebrafish, in vivo) was found to be 0.11.

Turning to `COC(=O)c1sc(NC(=O)C2CCCO2)c(C(=O)OC)c1C` (stereo not shown) [compound 5690842], in test [1], the “Ave Norm FLIPR Score” value is reported as 12.09 and the “FLIPR Results” value is recorded as “Positive”. Taken in the same sequence, the figures for `CCOC(=O)c1c(N)sc2ccccc12` [compound 5142031] were 5.237 and “Positive”. On to `CCC(C)N(C)C(=O)c1cc2ccccc2c(-c2ccccc2Cl)n1` (stereo not shown) [PK 11195], for which the “enhanced acoustic startle response” value in the test on zebrafish (setting [2]) is listed as “caused eASRs in vivo”. In the test with zebrafish (zebrafish, in vivo), `Cc1nccn1CC1CCc2c(c3ccccc3n2C)C1=O.Cl` (stereo not shown) [Ondansetron Hydrochloride] showed a Phenoscore of 0.13. `CCc1cc2c(=O)c(-c3ccccc3Cl)coc2cc1O` [compound 7014338]: the “Ave Norm FLIPR Score” value in test [1] is listed as -6.27. With `CCCN(CCC)S(=O)(=O)c1ccc(Cl)c(Cl)c1OC` [compound 6474599], in test [1], the “Ave Norm FLIPR Score” value stood at 52.02 and the “FLIPR Results” value is on record as “Positive”. For the compound `CC(C)CC(=O)NC(S)=NCc1ccccc1` [compound 6993015], in test [1], the “Ave Norm FLIPR Score” value was determined as 23.93 and the “FLIPR Results” value was “Positive”. Turning to `CCOC(=O)Nc1ccc(NCc2ccc(F)cc2)nc1N` [flupirtine], the “eASR magnitudes in animals treated with M-current ligands” value (“eASR magnitudes in animals treated” below) in the test on zebrafish (zebrafish, in vivo) is “significantly decreased”. As to `NC(CCP(=O)(O)O)C(=O)O` [L-AP4], the Phenoscore in the test on zebrafish (zebrafish, in vivo) is recorded as 0.1. Same read-out and setting: the same measure for `O=C([O-])[C@H]1CCCC[C@H]1C(=O)Nc1cc(Cl)cc(Cl)c1.[Na+]` [VU 0155041 Na Salt]: 0.11. Turning to `Cc1cccc(C#Cc2ccccc2)n1` [MPEP], the “enhanced acoustic startle response” value in the test on zebrafish (setting [2]) is listed as “reproducibly caused eASRs”. In the test on zebrafish (zebrafish, in vivo), this compound had a Phenoscore of 0.73. With `Cc1cc(C)n2c(SCc3ccc(C(=O)c4ccccc4)cc3)nnc2n1` [compound 7166683], the “Ave Norm FLIPR Score” value in test [1] is recorded as -1.302. In the test with zebrafish (zebrafish, in vivo), `CC(N)Cc1c[nH]c2ccc(OCc3cccs3)cc12` (stereo not shown) [BW 723C86] registered a Phenoscore of 0.1. As to `CCc1[nH]c2ccc(OC)cc2c1CCN(C)C.O=C(O)C(=O)O` [EMDT oxalate], in the test on zebrafish (co-treatment, in words), the “effect on eASRs caused by HTR6 antagonists” value is listed as “did not suppress eASRs”.

As to `CCCCNc1c(C(=O)OCC)c(C)nc2c1cnn2CC` [tracazolate], in test [1], the “Ave Norm FLIPR Score” value was determined as 50.14 and the “FLIPR Results” value was “Positive”. Besides, the “GABAAR PAM activity in FLIPR, in words” value in test [1] (in the presence of GABA) is listed as “increased fluorescence in the presence of GABA”. Regarding `C[C@]12CC[C@@H](O)C[C@H]1CC[C@@H]1[C@@H]2CC[C@]2(C)[C@@H](C(=O)CO)CC[C@@H]12` [THDOC, tetrahydrodeoxycorticosterone], the phenoscore category entry in the test on zebrafish (average phenoscore at highest scoring treatment) is reported as “intermediate (intermediate phenoscores (0.51 < x < 0.71))”. For `C[C@]12C=CC(=O)N[C@@H]1CC[C@@H]1[C@@H]2CC[C@]2(C)[C@@H](C(=O)Nc3cc(C(F)(F)F)ccc3C(F)(F)F)CC[C@@H]12` [dutasteride], in the test on zebrafish (dutasteride 3.0 μM + progesterone 2.5 μM), the “effect on progesterone's etomidate-like phenotype” value is on record as “suppressed”. In the test on zebrafish (zebrafish, in vivo), `NCCCC(=O)O` [GABA] displayed a Phenoscore of 0.21. Same read-out and setting: for `O=C(N/N=C/c1ccccc1O)c1ccccc1O` [SCS] the value was 0.04. Turning to `O=C1N(c2ccccc2)c2ccccc2C1(Cc1ccncc1)Cc1ccncc1` [linopirdine], the “eASR magnitudes in animals treated” value in the test with zebrafish (zebrafish, in vivo) was “significantly increased”.

In turn, `CN(C)C/C=C(\c1ccc(Br)cc1)c1cccnc1.Cl.Cl.O` [Zimelidine dihydrochloride monohydrate] came in with a Phenoscore in the test on zebrafish (zebrafish, in vivo) of 0.16.

The compound `O=C(Nc1ccc(Cl)c(Cl)c1)c1ccc(Cl)cc1Cl` [compound 7136301] returned a Phenoscore in the test on zebrafish (zebrafish, in vivo) of 0.42.

The compound `CCOC(=O)c1cc2c(cn1)[nH]c1ccccc12` [β-CCE] displayed a Phenoscore in the test on zebrafish (zebrafish, in vivo) of 0.37. On the same count and under the same terms, for `NC[C@H](CC(=O)O)c1ccc(Cl)cc1` [R-Baclofen] the value was 0.26; for `Cc1[nH]c2ccc(Cl)cc2c1C1=CCNCC1.Cl` [EMD 386088 HYDROCHLORIDE], 0.15.

Consider `CSc1ccc2c(c1)C(N1CCN(C)CC1)Cc1ccccc1S2` (stereo not shown) [METHIOTHEPIN], for which the Phenoscore in the test with zebrafish (zebrafish, in vivo) turned out to be 0.33.

Regarding `CN(C)CCn1cc(S(=O)(=O)c2cccc(F)c2)c2cccnc21` [WAY 208466], in the test on zebrafish (zebrafish, in vivo), the Phenoscore was determined as 0.21. Still for that read-out and setting: for `NC/C=C/C(=O)O` [TACA] the value was 0.07; for `CN1CCc2cc3c(cc2[C@H]1[C@@H]1OC(=O)c2c1ccc1c2OCO1)OCO3` [bicuculline (-)], 0.05. Same read-out and setting: the same measure for `NCCc1c[nH]c2c(O)cc(O)cc12` [57-DIHYDROXYTRYPTAMINE]: 0.05. Same read-out and setting: for `CN1CC(=O)NC1=NC(=O)Nc1cccc(Cl)c1` [Fenobam] the value was 0.3. As for `FC(F)OC(Cl)C(F)(F)F` (stereo not shown) [isoflurane], the “enhanced acoustic startle response” value with zebrafish (setting [2]) is “not all anesthetics caused eASR behaviors”. Compound `CCOC(=O)c1ncn2c1[C@@H]1CCCN1C(=O)c1cc(OC)ccc1-2` [L-655,708] had a Phenoscore with zebrafish (zebrafish, in vivo) of 0.51. For the compound `COc1ccccc1N1CCN(C(=O)COc2ccc(Cl)cc2Br)CC1` [compound 5801496], the “enhanced acoustic startle response” value with zebrafish (setting [2]) was “did not cause eASRs in vivo”. In the test with zebrafish (zebrafish, in vivo), `CCCN(CCC)C1CCc2cccc(O)c2C1` (stereo not shown) [8-HYDROXY-DPAT] came in with a Phenoscore of 0.49. For `O=C(Nc1cnc(Cl)nc1)c1ccc(F)c(F)c1` [ICA-069673], the “eASR magnitudes in animals treated” value with zebrafish (zebrafish, in vivo) is given as “significantly decreased”. Compound `CN1CCc2cc3c(cc2[C@H]1[C@@H]1OC(=O)c2c1ccc1c2OCO1)OCO3` [bicuculline (+)] displayed a Phenoscore with zebrafish (zebrafish, in vivo) of 0.23.

`Cc1c(OCc2cccc(-c3ccc(C(=O)O)cc3)c2)cc2c(c1C)C(=O)C(C1CCCC1)C2` (stereo not shown) [Biphenylindanone A] yielded a Phenoscore with zebrafish (zebrafish, in vivo) of 0.11. Same read-out and setting: for `COc1ccccc1N1CCN(C(=O)c2ccc(C(=O)c3c(C)cc(C)cc3C)cc2)CC1` [compound 5352629] the value was 0.48; for `Br.COc1ccc(-c2ccc(=N)n(CCCC(=O)O)n2)cc1` [SR-95531], 0.21. `Oc1noc2c1CCNC2` [THIP, gaboxadol]: the “enhanced acoustic startle response” value in the test with zebrafish (setting [2]) is listed as “did not cause eASRs”. Same read-out and setting: for `O=C(Nc1c(-c2cccs2)nc2ccccn12)c1ccc(Cl)cc1` [DS2] the value was “did not cause eASRs”. In the case of `O=C1CCCN1CC#CCN1CCCC1` [oxotremorine], the “eASR magnitudes in animals treated” value in the test with zebrafish (zebrafish, in vivo) is listed as “significantly increased”.

In the case of `O=C1c2ccccc2C(Cc2ccncc2)(Cc2ccncc2)c2ccccc21` [XE-991], the “eASR magnitudes in animals treated” value in the test on zebrafish (zebrafish, in vivo) is “significantly increased”. In the test on zebrafish (zebrafish, in vivo), `O=C(O)/C=C\C(=O)O.c1ccc2nc(N3CCNCC3)ccc2c1` [Quipazine maleate salt] showed a Phenoscore of 0.16. Consider `Cc1cccc([C@H](C)c2cnc[nH]2)c1C` [dexmedetomidine], for which, in the test on zebrafish (zebrafish, in vivo), the “enhanced acoustic startle response” value is on record as “not all anesthetics caused eASR behaviors”.

`COc1ccc2c(c1)c(CCN(C)C)cn2S(=O)(=O)c1ccccc1.O=C(O)C(=O)O` [MS 245 OXALATE]: in the test with zebrafish (zebrafish, in vivo), the Phenoscore came out at 0.09. The same measure, in the same setting: for `COc1cc(CC(C)N)c(OC)cc1I.Cl` (stereo not shown) [DOI HYDROCHLORIDE] the value was 0.1. In the test with zebrafish (zebrafish, in vivo), `CC(N)Cc1c[nH]c2ccc(O)cc12` (stereo not drawn) [alpha-METHYLSEROTONIN] displayed a Phenoscore of 0.18.

Turning to `Cc1[nH]c2ccc(Cl)cc2c1CCN(C)C.O=C(O)C(=O)O` [ST 1936 OXALATE], the Phenoscore in the test on zebrafish (zebrafish, in vivo) turned out to be 0.09. Consider `O=C(c1ccccn1)c1cnn2c(-c3ccncc3)ccnc12` [ocinaplon], for which the “enhanced acoustic startle response” value with zebrafish (setting [2]) is “produced a behavioral profile that resembled the negative”. In the case of `COc1ccc(S(=O)(=O)Nc2cc(Cl)cc(Cl)c2OC)cc1N1CCNCC1.Cl` [SB 399885 hydrochloride], the Phenoscore with zebrafish (zebrafish, in vivo) is listed as 0.16. The same measure, in the same setting: the same measure for `CCOC(=O)c1c(C)n(Cc2ccco2)c2ccc(OC)cc12` [compound 5943451]: 0.37; for `N[C@@H](Cn1ccc(=O)n(Cc2ccccc2C(=O)O)c1=O)C(=O)O` [UBP 302]: 0.17; for `CNc1cc(NS(=O)(=O)c2ccc(N)cc2)nc(NC)n1` [Ro 04-6790]: 0.11. On the same count and under the same terms, for `CN(C)CCCc1cc(C(=O)Nc2ccc(-c3ccncc3)cc2)ccc1O.Cl.Cl` [GR 55562 DIHYDROCHLORIDE] the value was 0.24; for `CCc1c(C(=O)OC)ncc2[nH]c3cc(OC)c(OC)cc3c12` [DMCM], 0.54. The same measure, in the same setting: the same measure for `COc1cc(Br)c(OC)c2c1[C@H](CN)C2` [TCB-2]: 0.1; for `CC1(C)CC(=O)c2c(SCCO)sc(-c3nccs3)c2C1` [TB 21007]: 0.12.
